# Experiments:
# [1] = human gut metagenome, 24 h, 2 µM
# [2] = The drug is tested on Z-022 corresponding to mouse gut metagenome with ENA study accession number: PRJEB37062 and ENA sample accession number: ERS12561821 for biotransformation under anaerobic condition. The drug concentrations were measured over 9 timepoints collected between 0 and 24 hours of incubation by liquid-chromatography-coupled mass spectrometry (LC–MS); settings: 2 µM
# [3] = The drug is tested on Z-029 corresponding to rat gut metagenome with ENA study accession number: PRJEB37062 and ENA sample accession number: ERS12561828 for biotransformation under anaerobic condition. The drug concentrations were measured over 9 timepoints collected between 0 and 24 hours of incubation by liquid-chromatography-coupled mass spectrometry (LC–MS); settings: 2 µM
# [4] = human gut metagenome, 24 h, 2 µM; remark: listed apart in the source
# [5] = The drug is tested on WLS-006 corresponding to human gut metagenome with ENA study accession number: PRJEB37062 and ENA sample accession number: ERS12561741 for biotransformation under anaerobic condition. The drug concentrations were measured over 9 timepoints collected between 0 and 24 hours of incubation by liquid-chromatography-coupled mass spectrometry (LC–MS); settings: 2 µM
# [6] = The drug is tested on Z-028 corresponding to mouse gut metagenome with ENA study accession number: PRJEB37062 and ENA sample accession number: ERS12561827 for biotransformation under anaerobic condition. The drug concentrations were measured over 9 timepoints collected between 0 and 24 hours of incubation by liquid-chromatography-coupled mass spectrometry (LC–MS); settings: 2 µM
# [7] = The drug is tested on WLS-039 corresponding to human gut metagenome with ENA study accession number: PRJEB37062 and ENA sample accession number: ERS12561746 for biotransformation under anaerobic condition. The drug concentrations were measured over 9 timepoints collected between 0 and 24 hours of incubation by liquid-chromatography-coupled mass spectrometry (LC–MS); settings: 2 µM
# [8] = The drug is tested on Z-018 corresponding to pig gut metagenome with ENA study accession number: PRJEB37062 and ENA sample accession number: ERS12561817 for biotransformation under anaerobic condition. The drug concentrations were measured over 9 timepoints collected between 0 and 24 hours of incubation by liquid-chromatography-coupled mass spectrometry (LC–MS); settings: 2 µM
# [9] = The drug is tested on WLS-073 corresponding to human gut metagenome with ENA study accession number: PRJEB37062 and ENA sample accession number: ERS12561749 for biotransformation under anaerobic condition. The drug concentrations were measured over 9 timepoints collected between 0 and 24 hours of incubation by liquid-chromatography-coupled mass spectrometry (LC–MS); settings: 2 µM
# [10] = The drug is tested on Z-008 corresponding to metagenome with ENA study accession number: PRJEB37062 and ENA sample accession number: ERS12561808 for biotransformation under anaerobic condition. The drug concentrations were measured over 9 timepoints collected between 0 and 24 hours of incubation by liquid-chromatography-coupled mass spectrometry (LC–MS); settings: 2 µM
# [11] = The drug is tested on WLS-038 corresponding to human gut metagenome with ENA study accession number: PRJEB37062 and ENA sample accession number: ERS12561745 for biotransformation under anaerobic condition. The drug concentrations were measured over 9 timepoints collected between 0 and 24 hours of incubation by liquid-chromatography-coupled mass spectrometry (LC–MS); settings: 2 µM
# [12] = The drug is tested on WLS-069 corresponding to human gut metagenome with ENA study accession number: PRJEB37062 and ENA sample accession number: ERS12561748 for biotransformation under anaerobic condition. The drug concentrations were measured over 9 timepoints collected between 0 and 24 hours of incubation by liquid-chromatography-coupled mass spectrometry (LC–MS); settings: 2 µM
# [13] = The drug is tested on Z-019 corresponding to rat gut metagenome with ENA study accession number: PRJEB37062 and ENA sample accession number: ERS12561818 for biotransformation under anaerobic condition. The drug concentrations were measured over 9 timepoints collected between 0 and 24 hours of incubation by liquid-chromatography-coupled mass spectrometry (LC–MS); settings: 2 µM
# [14] = human gut metagenome, 24 h, 2 µM; remark: listed apart in the source
# [15] = The drug is tested on WLS-098 corresponding to human gut metagenome with ENA study accession number: PRJEB37062 and ENA sample accession number: ERS12561754 for biotransformation under anaerobic condition. The drug concentrations were measured over 9 timepoints collected between 0 and 24 hours of incubation by liquid-chromatography-coupled mass spectrometry (LC–MS); settings: 2 µM
# [16] = human gut metagenome, 24 h, 2 µM; remark: listed apart in the source
# [17] = The drug is tested on Z-020 corresponding to rabbit gut metagenome with ENA study accession number: PRJEB37062 and ENA sample accession number: ERS12561819 for biotransformation under anaerobic condition. The drug concentrations were measured over 9 timepoints collected between 0 and 24 hours of incubation by liquid-chromatography-coupled mass spectrometry (LC–MS); settings: 2 µM
# [18] = human gut metagenome, 24 h, 2 µM; remark: listed apart in the source
# [19] = The drug is tested on WLS-310 corresponding to human gut metagenome with ENA study accession number: PRJEB37062 and ENA sample accession number: ERS12561785 for biotransformation under anaerobic condition. The drug concentrations were measured over 9 timepoints collected between 0 and 24 hours of incubation by liquid-chromatography-coupled mass spectrometry (LC–MS); settings: 2 µM
# [20] = human gut metagenome, 24 h, 2 µM; remark: listed apart in the source
# Note: call rule not given here.
SMILES,Bacterial Biotransformation [1],Bacterial Biotransformation [2],Bacterial Biotransformation [3],Bacterial Biotransformation [4],Bacterial Biotransformation [5],Bacterial Biotransformation [6],Bacterial Biotransformation [7],Bacterial Biotransformation [8],Bacterial Biotransformation [9],Bacterial Biotransformation [10],Bacterial Biotransformation [11],Bacterial Biotransformation [12],Bacterial Biotransformation [13],Bacterial Biotransformation [14],Bacterial Biotransformation [15],Bacterial Biotransformation [16],Bacterial Biotransformation [17],Bacterial Biotransformation [18],Bacterial Biotransformation [19],Bacterial Biotransformation [20]
CC#C[C@]1(O)CC[C@H]2[C@@H]3CCC4=CC(=O)CCC4=C3[C@@H](c3ccc(N(C)C)cc3)C[C@@]21C [MIFEPRISTONE],Compound NOT metabolized,Compound NOT metabolized,Compound NOT metabolized,Compound NOT metabolized,Compound metabolized,Compound NOT metabolized,Compound NOT metabolized,Compound metabolized,Compound NOT metabolized,Compound metabolized,Compound metabolized,Compound metabolized,Compound NOT metabolized,Compound metabolized,Compound NOT metabolized,Compound metabolized,Compound metabolized,Compound NOT metabolized,Compound metabolized,Compound NOT metabolized
CC(C)(C)NCC(O)COc1cccc2c1CC(O)C(O)C2 (stereo not given) [NADOLOL],Compound NOT metabolized,Compound metabolized,Compound NOT metabolized,Compound metabolized,Compound NOT metabolized,Compound NOT metabolized,Compound NOT metabolized,Compound NOT metabolized,Compound NOT metabolized,Compound NOT metabolized,Compound NOT metabolized,Compound metabolized,Compound NOT metabolized,Compound metabolized,Compound metabolized,Compound NOT metabolized,Compound NOT metabolized,Compound NOT metabolized,Compound metabolized,Compound NOT metabolized
CC(C)[C@H]1CC[C@H](C(=O)N[C@H](Cc2ccccc2)C(=O)O)CC1 [NATEGLINIDE],Compound metabolized,Compound NOT metabolized,Compound NOT metabolized,Compound metabolized,Compound metabolized,Compound NOT metabolized,Compound NOT metabolized,Compound metabolized,Compound metabolized,Compound NOT metabolized,Compound metabolized,Compound metabolized,Compound NOT metabolized,Compound metabolized,Compound metabolized,Compound metabolized,Compound metabolized,Compound metabolized,Compound metabolized,Compound metabolized
CN(C)C(=O)Oc1cccc([N+](C)(C)C)c1.[Br-] [NEOSTIGMINE BROMIDE],Compound NOT metabolized,Compound NOT metabolized,Compound metabolized,Compound NOT metabolized,Compound NOT metabolized,Compound NOT metabolized,Compound NOT metabolized,Compound NOT metabolized,Compound NOT metabolized,Compound NOT metabolized,Compound NOT metabolized,Compound NOT metabolized,Compound NOT metabolized,Compound NOT metabolized,Compound NOT metabolized,Compound NOT metabolized,Compound NOT metabolized,Compound NOT metabolized,Compound NOT metabolized,Compound NOT metabolized
Cc1ccccc1C(OCCN(C)C)c1ccccc1.O=C(O)CC(O)(CC(=O)O)C(=O)O (stereo not given) [ORPHENADRINE CITRATE],Compound NOT metabolized,Compound NOT metabolized,Compound NOT metabolized,Compound metabolized,Compound metabolized,Compound NOT metabolized,Compound metabolized,Compound metabolized,Compound NOT metabolized,Compound NOT metabolized,Compound NOT metabolized,Compound NOT metabolized,Compound NOT metabolized,Compound metabolized,Compound NOT metabolized,Compound metabolized,Compound metabolized,Compound NOT metabolized,Compound NOT metabolized,Compound NOT metabolized

# Reference: ChEMBL document CHEMBL5724914, “Linking interpersonal differences in gut microbiota composition and drug biotransformation activity” (2024)
